The test system of one test is primary rat adipocytes. Nature of the test: 2-Deoxyglucose uptake in insulin-stimulated primary rat adipocytes (predominantly GLUT4). It counts as cell-based. The following applies: for Effect on 2-deoxyglucose uptake (GLUT4 transporter activity): primary rat adipocytes. As for the experimental part: Adipocytes from epididymal fat pads were prepared from male Wistar rats weighing 150 – 200 g (from Charles River Laboratories, Inc., Wilmington, MA) as previously described. Adipocytes were stimulated with 1 µM insulin for 30 min at 37°C prior to use. 2-Deoxyglucose uptakes were performed by adding 80 µl of the cell suspension to 80 µl of Krebs-Ringer bicarbonate Hepes buffer (KRB) (120 mM NaCl, 4 mM KH2PO4, 1 mM MgSO4, 1 mM CaCl2, 10 mM NaHCO3, 200 nM adenosine, 30 mM Hepes, pH 7.4) containing 3% bovine serum albumin. HIV protease inhibitors / vehicle were added 5 min prior to the initiation of the reaction. Uptakes were initiated with the addition of 20 µl of [^3H]2-deoxyglucose (final 2-deoxyglucose concentration 50 µM; 0.5 µCi/assay). After 1 min at 37 °C, reactions were quenched with cytochalasin B to a final concentration of 0.4 mM. The cells were separated by spinning the reaction through dinonylphthalate as previously described and the intracellular radioactivity was quantified by liquid scintillation counting. Non-specific uptake measured in the presence of 20 µM cytochalasin B (Sigma) was subtracted from the experimental values.

For test [1], the target named is T1, GLUT4 (Mus musculus, UniProt P14142).
T1 sequence (P14142 1-509): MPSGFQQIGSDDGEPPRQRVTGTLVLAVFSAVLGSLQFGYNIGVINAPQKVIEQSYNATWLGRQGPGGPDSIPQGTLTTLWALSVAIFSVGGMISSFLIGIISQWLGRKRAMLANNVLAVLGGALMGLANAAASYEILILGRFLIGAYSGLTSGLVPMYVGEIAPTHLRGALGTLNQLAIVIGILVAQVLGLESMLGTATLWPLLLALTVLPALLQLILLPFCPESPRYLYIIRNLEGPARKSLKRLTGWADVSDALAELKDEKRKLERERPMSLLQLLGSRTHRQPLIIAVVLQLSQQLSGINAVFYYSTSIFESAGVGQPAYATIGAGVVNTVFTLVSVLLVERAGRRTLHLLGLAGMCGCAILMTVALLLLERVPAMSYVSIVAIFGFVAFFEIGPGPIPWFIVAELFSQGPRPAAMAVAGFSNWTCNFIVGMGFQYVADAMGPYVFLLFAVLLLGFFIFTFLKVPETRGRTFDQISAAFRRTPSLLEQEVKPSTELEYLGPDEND
The following applies: Xenopus oocytes; read-out: Binding affinity (KI) for GLUT4 in the oocyte system; cited from earlier work.

Test [2] has as its target T1, GLUT4. Nature of the test: Kinetic (Scatchard) analysis of indinavir effect on ATB-BMPA labeling of GLUT4 in LDM. The format is binding. Further details: LDM contains small intracellular vesicles of GLUT4 and GLUT1; endogenous in cells; host or cells: low-density microsome fraction of differentiated 3T3-L1 adipocytes. Particulars: from Kd(apparent) = Kd (1 + [I]/KI), LDM 50 µg; read-out: KI, competitive inhibition of ATB-BMPA binding to the cytoplasmic glucose binding site of GLUT4. On the procedure:
ATB-BMPA (50, 100, 200, 300 µM final concentration) was then added for an additional 10 min (5 min at room temperature, 5 min at 4 °C). Samples (110 µl final volume) were UV irradiated as described above. After removal of excess label with a desalting spin column, GLUT4 protein was immunoprecipitated from Thesit-solubilized LDM using a GLUT4 C-terminal directed antibody. ATB-BMPA-bound GLUT4 was analyzed by immunoblot analysis using an IR Dye 800 CW fluorescent streptavidin (LI-COR) and quantified with an Odyssey Infrared Imaging System. Identical samples that were not UV irradiated were used to correct for non-specific binding. The free ATB-BMPA concentration was assumed to be equal to the total ATB-BMPA concentration since the label concentration far exceeded the GLUT4 concentration. The data was expressed as Scatchard plots, bound/free versus bound. The Bmax and Kd values were determined from the horizontal intercept and the negative […], respectively.

Read-outs that look alike come from different tables or passages of the source.

For the compound `CC(C)(C)NC(=O)[C@@H]1CN(Cc2cccnc2)CCN1C[C@@H](O)C[C@@H](Cc1ccccc1)C(=O)N[C@H]1c2ccccc2C[C@H]1O` [Indinavir, indinavir], the “Effect on 2-deoxyglucose uptake (GLUT4 transporter activity)” value in the test on primary rat adipocytes (10 µM PI) is “reduced”; with primary rat adipocytes (50 µM PI), “affected”. Moreover, the IC50 in the test with primary rat adipocytes (Rattus norvegicus, Adipocyte, insulin-stimulated, 50 µM 2-deoxyglucose, read-out: IC50 for inhibition of 2-deoxyglucose uptake in primary rat adipocytes) was 11 µM. Besides, the values for the Ki at GLUT4 [1] and at GLUT4 [2] were 50 µM and 8.2 µM, respectively.

As a reminder, the IC50 is the point on the concentration scale where inhibition reaches its midpoint.
